Literature values, collected in paper PMC8476002, “Bergamottin a CYP3A inhibitor found in grapefruit juice inhibits prostate cancer cell growth by downregulating androgen receptor signaling and promoting G0/G1 cell cycle block and apoptosis” (PLoS ONE, 2021).

Legend:
[1] = system: cell growth; conditions: earlier work of the authors; cited from earlier work
[2] = system: cytoplasmic AR; design: method as in PMID 32316460; conditions: cited from earlier work

Structure (SMILES)	cell growth [1]	cytoplasmic AR [2]
CC[C@]1(C)C[C@@H](OC(=O)CSc2nnc(N)[nH]2)[C@]2(C)[C@H](C)CC[C@]3(CCC(=O)[C@H]32)[C@@H](C)[C@@H]1O [azamulin]	cell growth is inhibited	–
CC(C)c1nc(CN(C)C(=O)N[C@H](C(=O)N[C@@H](Cc2ccccc2)C[C@H](O)[C@H](Cc2ccccc2)NC(=O)OCc2cncs2)C(C)C)cs1 [ritonavir]	–	increase in cytoplasmic AR
